In patent US10414718B2, “Dezocine analogue” (priority 2016, dated 2019):
Counter-ions that a name gives are not always drawn.

How the values were obtained:
[1] = Pharmacokinetic study of intravenous injection in rats; settings: SD, rat, plasma, 1 mg/kg
Text: Through the in vivo drug metabolism test in rats, values such as Cmax, t1/2, AUC, MRT and B/P ratio of the compound in vivo were used as indicators to evaluate the metabolism of the compound in rats.
1. Pharmacokinetic Study of Intravenous Injection of Dezocine and Analogues Thereof in Rats
Mixing the test compound with an appropriate amount of physiological saline solution of 20% polyethylene glycol 400, followed by vortex and sonicate, and adjusting the pH to 4-5 with hydrochloric acid to obtain 5 mg/mL approximately clear solution, filtering the solution by microporous filtering film to be used. Selecting 6 to 9 weeks old SD rats (Shanghai Sleek Laboratory Animal Co., Ltd.) and intravenously injecting the test compound solution at a dose of 1 mg/kg. Collecting whole blood in certain time to prepare and obtain plasma. Analyzing drug concentrations by LC-MS/MS method and calculating pharmacokinetic parameters using Phoenix WinNonlin software (Pharsight, USA).

δ opioid receptor = biological target: T1, δ opioid receptor (Homo sapiens, UniProt P41143); assay: FLIPR intracellular calcium signal test, HEK293-δ cells; assay type: cell-based; settings: for EC50: EC50 (activation) test, read-out: Delt receptor EC50; for IC50: IC50 (inhibition) test against EC80 of positive agonist, read-out: Delt receptor IC50
T1 construct: expressed in transfected cells
T1 sequence (P41143 whole entry): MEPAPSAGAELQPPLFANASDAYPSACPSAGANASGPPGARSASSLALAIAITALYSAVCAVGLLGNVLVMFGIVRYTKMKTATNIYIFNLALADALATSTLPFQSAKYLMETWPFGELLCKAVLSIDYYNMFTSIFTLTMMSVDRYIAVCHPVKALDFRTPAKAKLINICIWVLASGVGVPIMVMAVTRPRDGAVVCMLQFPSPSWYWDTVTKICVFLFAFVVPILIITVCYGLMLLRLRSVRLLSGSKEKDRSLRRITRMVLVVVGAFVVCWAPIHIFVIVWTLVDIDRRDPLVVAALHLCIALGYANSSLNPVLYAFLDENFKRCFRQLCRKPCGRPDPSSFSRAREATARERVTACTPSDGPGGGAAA
Procedure: (§1) Fluorescence imaging plate reader FLIPR was used to detect changes of intracellular calcium signals. EC50 and IC50 values of the compounds were used as indicators to evaluate the activation or inhibition of the compounds on μ, κ, and δ opioid receptors.
(§2) Cell lines: HEK293-μ, HEK293-κ and HEK293-δ, stable-transfected cell lines HEK293-μ, HEK293-κ and HEK293-δ; Cell culture media (DMEM, Invitrogen #11965118, 10% fetal bovine serum Invitrogen #10099141, Geneticin Selective Antibiotic (G418) 300 μg/mL, Invitrogen #10131027, Blasticidin-S HCL 2 ug/mL Invitrogen #A1113902)
(§3) 1. Cell Seeding (HEK293-μ, HEK293-κ and HEK293-δ Cells)
(§4) 1) Preheating medium, pancreatic enzyme, and DPBS in a 37° C. water bath. Aspirating the culture medium from the cell culture flask and washing it with 10 mL DPBS;
(§5) 2) Adding the preheated pancreatic enzyme solution to the cell culture flask, rotating the flask slightly to make the pancreatic enzymes evenly cover the cell surface of the flask, and then putting it into a 37° C., 5% CO2 incubator to digest for 1-2 minutes;
(§6) 3) Suspending the cells with 10-15 mL culture medium in each T150 cm^2 cell culture flask, centrifugating at 800 rpm for 5 minutes, and resuspending the cells with 10 mL culture medium, aspirating 1 mL cell resuspension to be counted with Vi-cell;
(§7) 4) Diluting HEK293-μ, HEK293-κ and HEK293-δ cells to 5×10^5/mL with culture medium, use multichannel pipette to add diluted cells into 384 plate (Greiner #781946) (50 μL/well, 25000 cells/well for HEK293-μ, HEK293-κ and HEK293-δ cells). Placing the cell plate in a 37° C., 5% CO2 incubator overnight.
(§8) 2. Adding Compound Samples:
(§9) 1) Diluting the compound to 20 mM with DMSO, 3 fold diluted, 8 gradients, double reduplicative wells, and adding it to the compound plate using an Echo ultrasonic liquid handler device (Echo liquid handler).
(§10) 1) Washing off the cell culture medium in 384 plate with vacuum pump, adding 20 μL Fluo-4 Direct fluorescent dye, then incubating in a 37° C., 5% CO2 incubator for 50 minutes, followed by equilibrating at room temperature for 10 minutes.
(§11) 2) EC50 test: Adding 20 uL HBSS buffer (containing 20 mM HEPES) to the compound plate, mixing well and centrifugating. Placing the cell plate and compound plate into FLIPR and reading the fluorescence value.
(§12) Calculating the EC80 value with the EC50 value of the positive agonist, preparing 4× EC80 solution, adding it to the 384 compound plate by multichannel pipette, and mixing well and centrifugating.
(§13) 4) IC50 test: In FLIPR, successively placing 4× EC80 plate, cell plate, FLIPR tip, running the program and reading the fluorescence value.
(§14) 4. Data Analyzing: Using Prism 5.0 to Analyze the Data and Calculate the EC50 and IC50 Values of the Compounds.

κ opioid receptor = biological target: T2, κ opioid receptor (Homo sapiens, UniProt P41145); assay: FLIPR intracellular calcium signal test, HEK293-κ cells; assay type: cell-based; settings: for EC50: EC50 (activation) test, read-out: Kapp receptor EC50; for IC50: IC50 (inhibition) test against EC80 of positive agonist, read-out: Kapp receptor IC50
T2 construct: expressed in transfected cells
T2 sequence (P41145 whole entry): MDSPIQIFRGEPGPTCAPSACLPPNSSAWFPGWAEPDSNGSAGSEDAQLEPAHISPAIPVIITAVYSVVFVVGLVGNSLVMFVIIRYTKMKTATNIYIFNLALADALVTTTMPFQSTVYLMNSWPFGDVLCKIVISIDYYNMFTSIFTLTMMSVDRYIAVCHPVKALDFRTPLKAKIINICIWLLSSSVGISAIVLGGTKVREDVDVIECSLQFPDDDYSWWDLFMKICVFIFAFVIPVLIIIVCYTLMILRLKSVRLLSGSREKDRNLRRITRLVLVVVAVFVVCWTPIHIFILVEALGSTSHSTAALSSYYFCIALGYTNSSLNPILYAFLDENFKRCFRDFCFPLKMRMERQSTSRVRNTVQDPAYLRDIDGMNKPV
Procedure: as §1, §2, §3, §4, §5, §6, §7, §8, §9, §10, §11, §12, §13, §14

μ opioid receptor = biological target: T3, μ opioid receptor (Homo sapiens, UniProt P35372); assay: FLIPR intracellular calcium signal test, HEK293-μ cells; assay type: cell-based; settings: for EC50: EC50 (activation) test, read-out: Mu receptor EC50; for IC50: IC50 (inhibition) test against EC80 of positive agonist, read-out: Mu receptor IC50
T3 construct: expressed in transfected cells
T3 sequence (P35372 whole entry): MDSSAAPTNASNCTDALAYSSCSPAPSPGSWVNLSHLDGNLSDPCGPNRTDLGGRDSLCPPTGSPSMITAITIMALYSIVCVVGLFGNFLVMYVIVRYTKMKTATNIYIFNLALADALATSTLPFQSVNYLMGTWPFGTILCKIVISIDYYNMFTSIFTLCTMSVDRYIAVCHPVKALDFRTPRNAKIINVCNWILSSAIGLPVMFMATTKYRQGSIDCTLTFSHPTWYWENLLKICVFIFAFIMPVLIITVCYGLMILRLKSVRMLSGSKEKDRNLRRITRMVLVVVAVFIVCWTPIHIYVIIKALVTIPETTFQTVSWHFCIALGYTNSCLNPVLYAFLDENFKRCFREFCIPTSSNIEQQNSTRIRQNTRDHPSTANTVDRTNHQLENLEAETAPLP
Procedure: as §1, §2, §3, §4, §5, §6, §7, §8, §9, §10, §11, §12, §13, §14

Compound | AUC(0-t) [1] | C0 [1] | MRT last [1] | Vd [1] | clearance [1] | half-life [1] | EC50 (δ opioid receptor) | IC50 (δ opioid receptor) | EC50 (κ opioid receptor) | IC50 (κ opioid receptor) | EC50 (μ opioid receptor) | IC50 (μ opioid receptor)
C[C@@]12CCCCC[C@@H](Cc3ccc(O)cc31)[C@@H]2N (relative stereo) [Dezocine, (−)-[5R-(5α,11α,13S*)]-13-amino-5,6,7,8,9,10,11,12-octahydro-5-methyl-5,11-methan obenzocyclodecen-3-ol] | 0.485 µM·h | 684 nM | 1.22 h | 12.2 L/kg | 139 mL/min/kg | 1.26 h | – | – | – | – | – | –
CC12CCCCC(Cc3c(F)cc(O)cc31)C2N (single isomer, unassigned) [Compound 32] | – | – | – | – | – | – | > 100 µM | 1 to 10 µM | 0.1 to 1 µM | 0.1 to 1 µM | 0.1 to 1 µM | 0.1 to 1 µM
CC12CCCCC(Cc3c(F)cc(O)cc31)C2N (single isomer, unassigned) [Compound 33] | – | – | – | – | – | – | 1 to 10 µM | 1 to 10 µM | 0.1 to 1 µM | 0.1 to 1 µM | 0.1 to 1 µM | 1 to 10 µM
Cc1cc(O)cc2c1CC1CCCCCC2(C)C1N (stereo not shown) [Compound 1] | – | – | – | – | – | – | > 100 µM | 1 to 10 µM | > 100 µM | 0.1 to 1 µM | > 100 µM | ≤ 0.1 µM
CC12CCCCCC(Cc3ccc(O)cc31)C2N (stereo not shown) [Compound 2, reference compound] | – | – | – | – | – | – | > 100 µM | > 100 µM | > 100 µM | 1 to 10 µM | – | –
CC12CCCCCC(Cc3c(Cl)cc(O)cc31)C2N (stereo not shown) [Compound 3] | – | – | – | – | – | – | > 100 µM | 1 to 10 µM | > 100 µM | 0.1 to 1 µM | 0.1 to 1 µM | 0.1 to 1 µM
CC12CCCCCC(Cc3ccc(O)c(F)c31)C2N (stereo not shown) [Compound 4] | – | – | – | – | – | – | > 100 µM | > 100 µM | > 100 µM | 1 to 10 µM | 0.1 to 1 µM | 0.1 to 1 µM
CC12CCCCCC(Cc3cc(O)c(O)cc31)C2N (stereo not shown) [Compound 5] | – | – | – | – | – | – | > 100 µM | > 100 µM | 1 to 10 µM | 10 to 100 µM | 1 to 10 µM | 10 to 100 µM
CC12CCCCCC(Cc3c(F)cc(O)cc31)C2N (stereo not shown) [Compound 6] | – | – | – | – | – | – | > 100 µM | 1 to 10 µM | > 100 µM | 1 to 10 µM | ≤ 0.1 µM | 0.1 to 1 µM
COc1cc(O)cc2c1CC1CCCCCC2(C)C1N (stereo not shown) [Compound 7] | – | – | – | – | – | – | > 100 µM | > 100 µM | > 100 µM | 1 to 10 µM | > 100 µM | 1 to 10 µM
CC12CCOCCC(Cc3ccc(O)cc31)C2N (stereo not shown) [Compound 8] | – | – | – | – | – | – | > 100 µM | > 100 µM | > 100 µM | 1 to 10 µM | 0.1 to 1 µM | 1 to 10 µM
CCc1cc(O)cc2c1CC1CCCCCC2(C)C1N (stereo not shown) [Compound 9] | – | – | – | – | – | – | > 100 µM | > 100 µM | > 100 µM | 1 to 10 µM | > 100 µM | 1 to 10 µM
CC(C)c1cc(O)cc2c1CC1CCCCCC2(C)C1N (stereo not shown) [Compound 10] | – | – | – | – | – | – | > 100 µM | > 100 µM | > 100 µM | 10 to 100 µM | > 100 µM | 10 to 100 µM
CC12CCCCCC(Cc3c(-c4ccccc4)cc(O)cc31)C2N (stereo not shown) [Compound 11] | – | – | – | – | – | – | > 100 µM | > 100 µM | 10 to 100 µM | > 100 µM | > 100 µM | > 100 µM
CC12CCCCCC(Cc3cc(Br)c(O)cc31)C2N (stereo not shown) [Compound 12] | – | – | – | – | – | – | > 100 µM | > 100 µM | > 100 µM | > 100 µM | 10 to 100 µM | 10 to 100 µM
CC(C)c1cc2c(cc1O)C1(C)CCCCCC(C2)C1N (stereo not shown) [Compound 13] | – | – | – | – | – | – | > 100 µM | > 100 µM | 10 to 100 µM | 10 to 100 µM | 10 to 100 µM | 10 to 100 µM
Cc1cc2c(cc1O)C1(C)CCCCCC(C2)C1N (stereo not shown) [Compound 14] | – | – | – | – | – | – | > 100 µM | > 100 µM | > 100 µM | 10 to 100 µM | 10 to 100 µM | 10 to 100 µM
CC12CCCCCC(Cc3cc(C4CC4)c(O)cc31)C2N (stereo not shown) [Compound 15] | – | – | – | – | – | – | > 100 µM | > 100 µM | 10 to 100 µM | > 100 µM | > 100 µM | > 100 µM
CC12CCCCCC(Cc3c(CO)cc(O)cc31)C2N (stereo not shown) [Compound 18] | – | – | – | – | – | – | > 100 µM | > 100 µM | > 100 µM | > 100 µM | > 100 µM | 1 to 10 µM
CC12CCCCCC(Cc3cc(C#N)c(O)cc31)C2N (stereo not shown) [Compound 19] | – | – | – | – | – | – | > 100 µM | > 100 µM | > 100 µM | > 100 µM | > 100 µM | > 100 µM
CC12CCCCCC(Cc3cc(Cl)c(O)c(Cl)c31)C2N (stereo not shown) [Compound 20] | – | – | – | – | – | – | > 100 µM | > 100 µM | > 100 µM | 10 to 100 µM | > 100 µM | 10 to 100 µM
C[C@]12CCCCC[C@H](Cc3c(F)cc(O)cc31)[C@@H]2N [Compound 22] | – | – | – | – | – | – | > 100 µM | 10 to 100 µM | > 100 µM | 1 to 10 µM | 1 to 10 µM | 0.1 to 1 µM
C[C@]12CCCCC[C@H](Cc3c(Cl)cc(O)cc31)[C@H]2N [Compound 24] | – | – | – | – | – | – | > 100 µM | 1 to 10 µM | > 100 µM | 1 to 10 µM | 10 to 100 µM | 0.1 to 1 µM
C[C@@]12CCOCC[C@@H](Cc3ccc(O)cc31)[C@@H]2N [Compound 25] | – | – | – | – | – | – | > 100 µM | 1 to 10 µM | > 100 µM | 1 to 10 µM | 0.1 to 1 µM | 1 to 10 µM
C[C@]12CCOCC[C@H](Cc3ccc(O)cc31)[C@H]2N [Compound 26] | – | – | – | – | – | – | > 100 µM | > 100 µM | > 100 µM | > 100 µM | > 100 µM | 10 to 100 µM
CC12CCCCCC(Cc3c(O)cc(O)cc31)C2N (stereo not shown) [Compound 27] | – | – | – | – | – | – | > 100 µM | > 100 µM | > 100 µM | 10 to 100 µM | > 100 µM | 1 to 10 µM
CCCC12CCCCC(Cc3c(F)cc(O)cc31)C2N (stereo not shown) [Compound 30] | – | – | – | – | – | – | > 100 µM | 10 to 100 µM | > 100 µM | 0.1 to 1 µM | 0.1 to 1 µM | 0.1 to 1 µM
CC(C)CC12CCCCC(Cc3c(F)cc(O)cc31)C2N (stereo not shown) [Compound 31] | – | – | – | – | – | – | > 100 µM | > 100 µM | > 100 µM | 10 to 100 µM | 10 to 100 µM | 10 to 100 µM
CC12CCCCCC(Cc3cc(Cl)c(O)cc31)C2N (stereo not shown) [Hydrochloride of Compound 16] | – | – | – | – | – | – | > 100 µM | > 100 µM | > 100 µM | 1 to 10 µM | 10 to 100 µM | 1 to 10 µM
CC12CCCCCC(Cc3cc(F)c(O)cc31)C2N (stereo not shown) [Hydrochloride of Compound 17] | – | – | – | – | – | – | > 100 µM | > 100 µM | > 100 µM | 10 to 100 µM | 1 to 10 µM | 1 to 10 µM
